# From PubChem BioAssay AID1996
# Details: buffer; pH 7.4; 200.0 µM
row,SMILES,solubility kinetic [µg/mL]
1,COc1ccc(NC(=O)Cn2c(=O)oc3ccccc32)cc1,35
2,O=C1NC(c2ccc(Cl)cc2Cl)Oc2ccccc21 (stereo not drawn),0.9
3,CCc1ccc(NC(=O)C(=O)NCC2CCCO2)cc1 (stereo not drawn),18.5
4,Cc1cc(C)c(C(=O)/C=C/c2cccs2)c(=O)[nH]1,34.4
5,CCOc1ccc(C2C([N+](=O)[O-])=C(C)N(C)C(=O)N2C)cc1OC (stereo not drawn),> 50.3
6,Cc1nonc1NC(=O)CSc1nnc(N)s1,> 40.8
7,CCN1CCN(Cc2nnc(-c3ccc(C)cc3)o2)CC1,> 43
8,COC(=O)c1scc(C)c1NC(=O)CSc1ccc(Cl)cc1,1.3
9,COc1ccc(CC(=O)Nc2ccccc2N2CCCC2)cc1OC,> 51.1
10,O=C(COC(=O)c1ccc2ncsc2c1)Nc1ccccc1Cl,4
11,Cc1ccc2c(C(=O)CN3CCCC(C)C3)c(C)[nH]c2c1 (stereo not drawn),39.3
12,Cc1onc(-c2ccccc2)c1-c1nc2cc(Cl)ccc2c(=O)o1,3.7
13,COc1ccc2[nH]c(C(=O)N3CCNCC3)cc2c1OC,36.2
14,N#C/C(=N\O)c1nc2ccccc2s1,> 30.5
15,COc1cccc(-c2noc(CCC(=O)NCCc3ccccc3)n2)c1,44.3
16,O=C(O/N=C(/c1ccccc1)c1ccncc1)c1cccc(F)c1,2.1
17,Cc1ccc(N2C(=O)CSC2c2cccnc2)c(Cl)c1 (stereo not drawn),> 45.7
18,COc1ccc(NC(=O)CC(C)CC(=O)NCc2ccccc2)c(OC)c1 (stereo not drawn),5
19,CCc1ccc(OCC(=O)O/N=C(\N)c2ccncc2)cc1,7.1
20,Nc1c(C(=O)Nc2ccccc2F)sc2nc(-c3cccnc3)ccc12,4.2
21,Cc1ccc(C)n1-c1ccccc1N1CCCCC1,6.4
22,COc1ccc(Cn2c(C)nc3c(c(=O)c4ccccc4n3C)c2=O)cc1,0.7

row,SMILES,solubility kinetic [µg/mL]
1,O=Cc1cccn1-c1nccc(-c2ccco2)n1,24.7
2,O=C(/C=C/c1ccccc1)NCCc1c[nH]c2ccccc12,19.7
3,CC1CN(S(=O)(=O)c2ccc(C(=O)NC3CCCCC3)cc2)CC(C)O1 (stereo not drawn),45.8
4,O=C(NN1CCOCC1)c1ccc(Br)s1,> 43.7
5,CC1CC1C(=O)N(C)CC(=O)Nc1ccccc1Br (stereo not drawn),> 48.8
6,CC(=O)c1c(C)c(C)c2n1CCn1c(C)ccc1-2,13.4
7,CCCOc1ccccc1/C=C(\C#N)C(=O)Nc1cccnc1,6.8
8,Cc1cccc(S(=O)(=O)N2CCCc3ccccc32)c1,6.7
9,NC(=O)COC(=O)CC12CC3CC(CC(Br)(C3)C1)C2,> 49.5
10,Cc1cc(C)cc(C(=O)OCC(=O)NC2CCCC2)c1,21.7
11,O=C(Nc1ccc(S(=O)(=O)N2CCCCC2)cc1)C1CCCCC1,13.5
12,c1cc(CNCCc2ccc3c(c2)OCO3)ccn1,28.5
13,CC(O)c1cccc(NC(=O)C2CCCCC2)c1 (stereo not drawn),25.6
14,Cn1ccnc1Sc1ccc(C(N)=O)cc1[N+](=O)[O-],38.7
15,COc1ccc(N2CC(C(=O)Nc3cccnc3)CC2=O)cc1 (stereo not drawn),> 46.7
16,Cl.Nc1ccc(Cc2ccccn2)cc1,> 38.6
17,Cc1ccc(NCCC(=O)c2cccs2)cc1C,18.1
18,CC1CN(C(=O)CSc2nc(N)cc(N)n2)CC(C)O1 (stereo not drawn),> 44.6
19,Cc1cccc2sc(NC(=O)C3CC3)nc12,1.4
20,O=c1[nH]c(O)c(C=Nc2ccccc2Sc2ccccc2)c(=O)[nH]1,1.3
21,CCC(C)NC(=O)c1cc(-c2ccc3c(c2)OCO3)on1 (stereo not drawn),3
22,CNS(=O)(=O)c1cccc(C(=O)NCC2CCCCC2)c1,> 46.6

row,SMILES,solubility kinetic [µg/mL]
1,N#Cc1c(N)n(-c2cccc(O)c2)c2nc3ccccc3nc12,6.4
2,CCOCCCNC(=O)C1c2ccccc2Oc2ccccc21,13.6
3,CCCCc1ccc(NC(=O)Nc2cccnc2)cc1,4
4,COc1ccccc1C(O)c1nccn1C (stereo not drawn),> 32.7
5,OCC[NH+](CCO)CC(O)COc1ccc(Br)cc1.[Cl-] (stereo not drawn),> 55.6
6,O=C(O)c1csc(-c2cccs2)n1,> 31.7
7,COc1c(Cl)cccc1-c1cn2ccc(C)cc2n1,1.4
8,NCCCNC(=O)c1ccc(/C=N/O)nc1,> 33.3
9,CCOc1ccc(S(=O)(=O)N2CCN(C(=O)c3ccco3)CC2)cc1,> 54.7
10,CC1(C)Cc2c(sc(NC(=O)/C=C/C(=O)O)c2C#N)CO1,41.4
11,COc1ccc(NC(=S)NCc2ccccc2Cl)c(OC)c1,< 0.4
12,Cc1ccc(C)c(-n2c(=O)c(C#N)cc3c(=O)n4ccccc4nc32)c1,6.2
13,COc1ccccc1CNC(=O)c1sccc1C,26.6
14,O=c1cc(CO)oc(C(Nc2ccccn2)c2ccccc2Cl)c1O (stereo not drawn),> 53.8
15,O=C(Cn1cc([N+](=O)[O-])cn1)NC1CCCCCC1,> 39.9
16,CCc1cc2cc(C)ccc2nc1SCC(=O)NC1CCCC1,< 0.4
17,COc1ccc(CCC(=O)NC2CCC(C)CC2)cc1 (stereo not drawn),22.2
18,CC(=O)Nc1ccc(SCc2ncc(-c3ccccc3)o2)cc1,45.3
19,O=C(CCNC(=O)c1ccc([N+](=O)[O-])cc1)NCCc1ccccc1,13.8
20,NC(=O)Cn1cc(C=C2C(=O)NC(=O)NC2=O)c2ccccc21,11.3
21,Clc1ccc(NCc2cccnc2)cc1,29.9
22,Cl.N[C@@H]1C[C@H]1c1ccccc1,> 25.4

row,SMILES,solubility kinetic [µg/mL]
1,O=C(COc1ccccc1Cl)NCCCNC(=O)c1ccco1,> 50.5
2,Cc1ccc(OP(N)(=O)Oc2ccc(C)cc2)cc1,29.6
3,Cc1ccc(-c2csc(NC(=O)c3ccc(F)cc3)c2C(=O)O)cc1,> 53.3
4,CC(C)[C@H](NS(=O)(=O)c1ccccc1F)C(=O)NC1CCCCC1,> 53.5
5,NS(=O)(=O)c1ccc(NC(=O)COC(=O)Cc2c[nH]c3ccccc23)cc1,37.8
6,CCOc1ccc(NS(=O)(=O)c2csc(C(N)=O)c2)cc1,46
7,O=C1ON=C(c2ccccc2)/C1=C/c1ccc(O)cc1,> 39.8
8,Cc1ccc(NC(=O)Nc2ccc(F)cc2F)c(OC(F)F)c1,< 0.4
9,COP(=O)(OC)c1nc(-c2ccc(C)cc2)oc1N1CCCCC1,> 52.6
10,CCCN1CCN(CC(=O)Nc2nnc(CC)s2)CC1,> 44.6
11,CN1C(=O)C(CC(=O)NC2CCCCC2)N(C)C1=O (stereo not drawn),> 40.1
12,O=C(Nc1ccc(Cl)cc1)N1CCOC12CCCCC2,> 44.2
13,Cc1ccc(N2C(=O)C3ON(c4ccccc4)C(CC(C)C)C3C2=O)cc1 (stereo not drawn),11.6
14,CC(=O)c1cccc(NC2c3ccccc3C(=O)N2Cc2ccco2)c1 (stereo not drawn),43.3
15,COc1ccccc1CNc1nc(C)c(C(=O)N(C)C)s1,> 45.8
16,O=C1/C(=C/c2cccs2)SC(=S)N1c1cccc(O)c1,1
17,NC(=NCCc1ccc(Cl)cc1)NS(=O)(=O)c1ccccc1,47.5
18,COc1ccc(CCNc2nc(C)cc(C)c2C#N)cc1OC,32.7
19,O=S(=O)(c1ccc(Cl)nc1)N1CCc2ccccc21,24.9
20,Cc1ccc(N=C2NC(=O)/C(=C/c3cccn3C)S2)c(C)c1,1.2
21,CC1(C)CC(NC(=O)c2ccccc2)CC(C)(C)N1,> 39.1
22,CC(C)(C)c1ccc(C(=O)/C(C#N)=C/c2cccs2)cc1,4.1
